From patent publication US20250213569A1, “METHODS AND COMPOSITIONS FOR MEASURING AND INHIBITING EXONUCLEASE ACTIVITY” (priority 2020, published 2025)
Like-named read-outs stand apart in the source and are kept apart here.

Columns and labels:
NSP14/10 complex = NSP14/10 complex (Severe acute respiratory syndrome coronavirus 2 (2019-nCoV) (SARS-CoV-2), UniProt P0DTD1); assay: Gel electrophoresis assay of Oligo B digestion; format: biochemical; conditions: for NSP14/NSP10 complex inhibitory potential (gel): concentrations as in FIG. 55
SARS-CoV2 = format: cell-based; conditions: A549-ACE2 cells; #112: 60 μM, #77: […] μM, #68: 25 μM
HCoV-OC43 = HCoV-OC43 infection of HMC3 cells, combination with remdesivir; format: cell-based; conditions: #112: 60 μM, #77: […] μM, #68: 25 μM
unbound NSP10 = assay: FRET-based activity assay, non-specific background of unbound NSP10; format: biochemical; conditions: dose-response, FIG. 11B
A549 cells [1] = assay: AlamarBlue viability assay; conditions: A549 human lung cells, 48 hours
[2] = target: SARS-CoV2 NSP14/NSP10 exonuclease (Severe acute respiratory syndrome coronavirus 2 (2019-nCoV) (SARS-CoV-2), UniProt P0DTD1); assay: biochemical; parameters: inhibition of NSP14/NSP10 complex exonuclease activity: dose or concentration left out as unconfirmed; conditions: for Inhibitory activity present: class symbols − to +++++, key not given
A549 cells [3] = system: A549 cells
[4] = Solubility issue (Table 2)
[5] = Table 2, read-out: SARS-CoV2 IC50
[6] = Oligo D, linear reaction range, less than 60% of total substrate consumed at readout, read-out: half maximal inhibitory concentration (IC50)

**Q.** Which results are given for `O=C(NCc1ccc(F)cc1)C1C(=O)N(O)C(=O)c2cc(C(F)(F)F)ccc21` (stereo not shown) [Compound 112, 7-trifluoromethyl-N-(4-fluorobenzyl)-2-hydroxy-1,3-dioxo-4H-isoquinoline-4-carboxamide]?
**A.** NSP14/NSP10 complex inhibitory potential (gel) (NSP14/10 complex): indeed novel NSP14 inhibitors; lowering of the EC50 values of remdesivir (SARS-CoV2): ~5 fold; lowering of the EC50 values of remdesivir (HCoV-OC43): ~5 fold

**Q.** With `O=C1Cc2ccccc2C(=O)N1O` [Compound 13, 2-Hydroxyisoquinoline-1,3(2H,4H)-dione] as the molecule, how does the “Inhibition of NSP14/10 (Oligo B digestion, gel)” value (NSP14/10 complex; 500 μM versus 100 μM) read?
**A.** greater at higher (500 μM) versus lower (100 μM) concentrations

**Q.** What about the “inhibition of non-specific background of NSP10” value (unbound NSP10) of the same molecule?
**A.** did not inhibit the non-specific background of NSP10

**Q.** What about the “Toxicity at IC50” value (A549 cells [1]) of the same molecule?
**A.** Yes

**Q.** And the “inhibition of NSP14/NSP10 complex exonuclease activity” value ([2]; Oligo E (TexasRed-BHQ2))?
**A.** showed inhibition

**Q.** With `CC(C)=CCc1c(O)cc(O)c(C(=O)/C=C/c2ccc(O)cc2)c1O` [Compound 71, Desmethylxanthohumol] as the molecule, how does the “Toxicity at IC50” value (A549 cells [1]) read?
**A.** Yes

**Q.** And the Inhibitory activity present [2]?
**A.** +++/ ++++

**Q.** Which “Toxicity at IC50” value (A549 cells [1]) does the source give for `Oc1ccc(/C=C/c2ccc3cccc(O)c3n2)cc1O` [Compound 92, 2-(3,4-dihydroxystyryl)-8-hydroxyquinoline] here?
**A.** Yes

**Q.** For `O=C(O)c1ccc2ccc(/C=C/c3ccc(F)c(F)c3)nc2c1O` [Compound 89, 2-(3,4-difluorostyryl)-8-hydroxyquinoline-7-carboxylic acid], which “Toxicity at IC50” value (A549 cells [1]) is on record?
**A.** Yes

**Q.** With `O=C(c1ccc(F)c(F)c1)c1ccc2ccc(/C=C/c3ccc(O)c(O)c3)nc2c1O` [Compound 93, 7-(3,4-difluorobenzoyl)-2-(3,4-dihydroxyvinyl)-8-hydroxyquinoline] as the molecule, how does the “Toxicity at IC50” value (A549 cells [1]) read?
**A.** Yes

**Q.** Which results are given for `CC(C)=CCOc1ccc(/C=C/C(=O)c2ccc(OCC=C(C)C)cc2OCC(=O)O)cc1` [Compound 68, Sofalcone, reference compound]?
**A.** NSP14/NSP10 complex inhibitory potential (gel) (NSP14/10 complex): indeed novel NSP14 inhibitors; Toxicity at IC50 (A549 cells [3]): Some; lowering of the EC50 values of remdesivir (SARS-CoV2): ~5 fold; IC50 ([2]; read-out: SARS-CoV2 IC50): 22 ± 6.02 µM; lowering of the EC50 values of remdesivir (HCoV-OC43): ~5 fold

**Q.** With `O=c1c2[nH]c3ccccc3c2ncn1CCc1ccc(F)cc1` [Compound 105, 3-[2-(4-Fluorophenyl)ethyl]-3,5-dihydro-4H-pyrimido[5,4-b]indol-4-one] as the molecule, how does the IC50 [2, 5] read?
**A.** 217 µM

**Q.** Which “Toxicity at IC50” value (A549 cells [1]) does the source give for `O=C(O)c1ccc2ccc(/C=C/c3ccc(O)c(O)c3)nc2c1O` [Compound 79, 2-(3,4-dihydroxystyryl)-8-hydroxyquinoline-7-carboxylic acid] here?
**A.** No

**Q.** For `O=c1cc(-c2ccc(O)cc2)oc2cc(O)c(O)c(O)c12` [Compound 62, Scutellarein], which “Toxicity at IC50” value (A549 cells [1]) is on record?
**A.** no

**Q.** Which “Toxicity at IC50” value (A549 cells [1]) does the source give for `CC(C)c1cc(Cc2cc(C(C)C)cc(C(=O)O)c2O)c(O)c(C(=O)O)c1` [Compound 65, 3-[(3-Carboxy-2-hydroxy-5-propan-2-ylphenyl)methyl]-2-hydroxy-5-propan-2-ylbenzoic acid] here?
**A.** no

**Q.** Which IC50 [2, 6] does the source give for `O=c1oc2ccccc2c(O)c1Cc1c(O)c2ccccc2oc1=O` [Dicoumarol] here?
**A.** > 500 µM

**Q.** For `O=C(O)c1ccc2ccc(/C=C/c3cc(Br)c(O)c(Br)c3)nc2c1O` [Compound 88, 2-(3,5-dibromo-4-hydroxystyryl)-8-hydroxyquinoline-7-carboxylic acid], which “Toxicity at IC50” value (A549 cells [1]) is on record?
**A.** No

**Q.** With `O=c1oc2ccccc2c(O)c1Cc1c(O)c2ccccc2oc1=O` [Compound 23, Dicoumarol, reference compound] as the molecule, how does the IC50 [2, 5] read?
**A.** > 500 µM

**Q.** For `O=C(O)c1cc2cc(-c3ccccc3)ccc2[nH]c1=O` [Compound 53, 2-Oxo-6-phenyl-1H-quinoline-3-carboxylic acid], which “Toxicity at IC50” value (A549 cells [1]) is on record?
**A.** no

**Q.** Which IC50 [2, 6] does the source give for `CC(C)=CCc1c(O)ccc(C(=O)/C=C/c2ccc(O)cc2)c1O` [Isobavachalcone] here?
**A.** 16.6 µM

**Q.** With `O=P(O)(O)c1ccc2ccc(CCc3ccc(O)c(O)c3)nc2c1O` [Compound 100, 2-(3,4-dihydroxyphenethyl)-8-hydroxyquinoline-7-phosphonic acid] as the molecule, how does the “Toxicity at IC50” value (A549 cells [1]) read?
**A.** No

**Q.** For `Cc1ccc2ccc(C(=O)O)c(O)c2n1` [Compound 78, 2-methyl-8-hydroxyquinoline-7-carboxylic acid], which “Toxicity at IC50” value (A549 cells [1]) is on record?
**A.** No

**Q.** For `O=C(O)c1cc(/C=C/c2ccc3ccc(C(=O)O)c(O)c3n2)ccc1O` [Compound 90, 2-(3-carboxy-4-hydroxystyryl)-8-hydroxyquinoline-7-carboxylic acid], which “Toxicity at IC50” value (A549 cells [1]) is on record?
**A.** No

**Q.** With `CC(C)=CCc1c2c(c3occ(-c4ccc(O)c(O)c4)c(=O)c3c1O)C=CC(C)(C)O2` [Pomiferin] as the molecule, how does the IC50 [2, 6] read?
**A.** 5.9 µM

**Q.** Which results are given for `Cc1c(S(=O)(=O)[O-])oc2c1C(=O)C(=O)c1c-2ccc2c1CCCC2(C)C.[Na+]` [Compound 60, Tanshinone IIA sulfonate]?
**A.** Solubility issue [4]: no; Toxicity at IC50 (A549 cells [1]): no

**Q.** For `O=C(/C=C/c1ccc(O)c(O)c1)c1ccc(O)c(O)c1O` [Compound 76, Okanin], which “Toxicity at IC50” value (A549 cells [1]) is on record?
**A.** Yes

**Q.** For `CC(C)=CCc1c(O)ccc(C(=O)/C=C/c2ccc(O)cc2O)c1O` [Compound 74, Morachalcone A], which “Toxicity at IC50” value (A549 cells [1]) is on record?
**A.** Yes

**Q.** Which “Toxicity at IC50” value (A549 cells [1]) does the source give for `O=C(O)c1c(O)c(Cc2ccc(Cl)cc2)nc2c3c(ccc12)CCCC3` [Compound 59, 2-(4-Chlorobenzyl)-3-hydroxy-7,8,9,10-tetrahydrobenzo(H)quinoline-4-carboxylic acid] here?
**A.** yes

**Q.** With `O=C(NCc1ncc[nH]1)c1c(O)cnc2ccccc12` [Compound 31, 3-Hydroxy-N-[(1H-imidazol-2-yl)methyl]quinoline-4-carboxamide] as the molecule, how does the “Toxicity at IC50” value (A549 cells [1]) read?
**A.** No

**Q.** Which “Toxicity at IC50” value (A549 cells [1]) does the source give for `O=C(O)c1cc(Cc2ccc(O)c(C(=O)O)c2)ccc1O` [Compound 30, 5,5′-Methylenedisalicylic acid] here?
**A.** No

**Q.** Which “NSP14/NSP10 complex inhibitory potential (gel)” value (NSP14/10 complex) does the source give for `CC(C)=CCc1c(O)ccc(C(=O)/C=C/c2ccc(O)cc2)c1O` [Compound 77, Isobavachalcone] here?
**A.** indeed novel NSP14 inhibitors

**Q.** And the “Toxicity at IC50” value (A549 cells [1])?
**A.** some

**Q.** And the “lowering of the EC50 values of remdesivir” value (SARS-CoV2)?
**A.** ~5 fold

**Q.** And the IC50 ([2]; read-out: SARS-CoV2 IC50)?
**A.** 17.4 ± 1.39 µM

**Q.** What about the “lowering of the EC50 values of remdesivir” value (HCoV-OC43) of the same molecule?
**A.** ~5 fold

**Q.** With `O=C(O)c1ccc2nc(/C=C/c3ccc(O)c(O)c3)ccc2c1O` [Compound 99, 2-(3,4-dihydroxystyryl)-5-hydroxyquinoline-6-carboxylic acid] as the molecule, how does the “Toxicity at IC50” value (A549 cells [1]) read?
**A.** Yes

**Q.** For `CC1(C)CCc2c(O)ccc(C(=O)/C=C/c3ccc(O)cc3)c2O1` [Compound 75, Isodorsmanin A], which “Toxicity at IC50” value (A549 cells [1]) is on record?
**A.** Yes

**Q.** With `CC(C)=CCc1cc(C(=O)/C=C/c2ccc(O)cc2)c(O)cc1O` [Compound 57, Bavachalcone] as the molecule, how does the “Toxicity at IC50” value (A549 cells [1]) read?
**A.** yes

**Q.** With `CC(C)=CCc1c2c(c3occ(-c4ccc(O)c(O)c4)c(=O)c3c1O)C=CC(C)(C)O2` [Compound 69, Pomiferin] as the molecule, how does the “Toxicity at IC50” value (A549 cells [3]) read?
**A.** Yes

**Q.** With `CC(C)=CCOc1ccc(/C=C/C(=O)c2ccc(OCC=C(C)C)cc2OCC(=O)O)cc1` [Sofalcone] as the molecule, how does the IC50 [2, 6] read?
**A.** 28.8 µM

**Q.** For `Oc1ccc(CC2NCCc3cc(O)c(O)cc32)cc1O` (stereo not shown) [Compound 54, Tetrahydropapaveroline], which “NSP14/NSP10 complex inhibitory potential (gel)” value (NSP14/10 complex) is on record?
**A.** indeed novel NSP14 inhibitors

**Q.** And the Solubility issue [4]?
**A.** no

**Q.** What about the “Toxicity at IC50” value (A549 cells [1]) of the same molecule?
**A.** no

**Q.** For `COc1cc(O)c(CC=C(C)C)c(O)c1C(=O)/C=C/c1ccc(O)cc1` [Compound 58, Xanthohumol], which “Toxicity at IC50” value (A549 cells [1]) is on record?
**A.** yes

**Q.** Which “Toxicity at IC50” value (A549 cells [1]) does the source give for `O=C(O)c1ccc2ccc(CCc3ccc(O)c(O)c3)nc2c1O` [Compound 94, 2-(3,4-dihydroxyphenethyl)-8-hydroxyquinoline-7-carboxylic acid] here?
**A.** No

**Q.** Which “Toxicity at IC50” value (A549 cells [1]) does the source give for `O=C(/C=C/c1ccc(O)cc1)c1c(O)cc(O)cc1O` [Compound 73, Naringenin chalcone] here?
**A.** Yes

**Q.** With `CC(C)=CCc1c(O)ccc(C(=O)/C=C/c2ccc(O)c(O)c2)c1O` [Compound 72, Corylifol B] as the molecule, how does the Inhibitory activity present [2] read?
**A.** +++/ ++++

**Q.** Which Solubility issue [4] does the source give for `COc1ccc2nc(O)c(-c3noc(-c4ccc(F)cc4)n3)cc2c1` [Compound 109, 3-(5-(4-Fluorophenyl)-1,2,4-oxadiazol-3-yl)-6-methoxyquinolin-2-ol] here?
**A.** No
